Our source for the T/C values is PubChem BioAssay AID330 (DTP/NCI, 2004).

In the test the test system is P388 leukemia ip, CD2F1 mice, survival T/C. As to the kind of experiment: NCI In Vivo Anticancer Drug Screen. Data for tumor model P388 Leukemia (intraperitoneal) in CD2F1 (CDF1) mice. The settings on record: endpoint: median survival time, higher = longer survival. The essentials:
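Mice carrying the transplanted tumor received test compound or vehicle. Survival was recorded in each group, and the value is the treated-group measurement divided by that of the vehicle-treated control group.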

Where [1] appears, read: dose: 6.25 mg/kg/injection, schedule: Q01DX009 (ip), vehicle: Klucel (hydroxypropylcellulose) (HPC).
[2] abbreviates: dose: 12.5 mg/kg/injection, schedule: Q01DX009 (ip), vehicle: Klucel (hydroxypropylcellulose) (HPC).
[3] abbreviates: dose: 25.0 mg/kg/injection, schedule: Q01DX009 (ip), vehicle: Klucel (hydroxypropylcellulose) (HPC).
[4] abbreviates: dose: 60.0 mg/kg/injection, schedule: Q01DX005 (ip), vehicle: saline with Tween-80.
The mark [5] stands for this setting: dose: 120.0 mg/kg/injection, schedule: Q01DX005 (ip), vehicle: saline with Tween-80.
The mark [6] stands for this setting: dose: 50.0 mg/kg/injection, schedule: Q01DX005 (ip), vehicle: Klucel (hydroxypropylcellulose) (HPC).
Where [7] appears, read: dose: 100.0 mg/kg/injection, schedule: Q01DX005 (ip), vehicle: Klucel (hydroxypropylcellulose) (HPC).
Setting [8] is: dose: 200.0 mg/kg/injection, schedule: Q01DX005 (ip), vehicle: Klucel (hydroxypropylcellulose) (HPC).
[9] abbreviates: dose: 100.0 mg/kg/injection, schedule: Q01DX001 (ip), vehicle: saline with Tween-80.
Where [10] appears, read: dose: 200.0 mg/kg/injection, schedule: Q01DX001 (ip), vehicle: saline with Tween-80.
[11] abbreviates: dose: 400.0 mg/kg/injection, schedule: Q01DX001 (ip), vehicle: saline with Tween-80.
The mark [12] stands for this setting: dose: 50.0 mg/kg/injection, schedule: Q01DX009 (ip), vehicle: saline.
[13] abbreviates: dose: 50.0 mg/kg/injection, schedule: Q01DX005 (ip), vehicle: saline with Tween-80.
The mark [14] stands for this setting: dose: 100.0 mg/kg/injection, schedule: Q01DX005 (ip), vehicle: saline with Tween-80.
The mark [15] stands for this setting: dose: 50.0 mg/kg/injection, schedule: Q01DX009 (ip), vehicle: saline with Tween-80.
Where [16] appears, read: dose: 100.0 mg/kg/injection, schedule: Q01DX009 (ip), vehicle: saline with Tween-80.
Where [17] appears, read: dose: 100.0 mg/kg/injection, schedule: Q01DX009 (ip), vehicle: saline.

Molecules are shown by their SMILES. Several values for one entry are separate records, joined by “and”; a condition that tells them apart may be missing. Equal values may be shown once. Toxic doses and inconclusive results are not listed.

On to `CCOC(=O)C(Cc1ccc(N(CCCl)CCCl)cc1)NC(=O)C(CC(C)C)NC(C)=O` (configuration not stated), for which the T/C was 162 % of control (dose: 3.12 mg/kg/injection, schedule: Q01DX009 (ip), vehicle: Klucel (hydroxypropylcellulose) (HPC)); 105 % of control (dose: 5.0 mg/kg/injection, schedule: Q04DX003 (ip), vehicle: water); 172 % of control under setting [1]; 107 % of control (dose: 10.0 mg/kg/injection, schedule: Q04DX003 (ip), vehicle: water); 241 % of control and 254 % of control under setting [2]; 108 % of control (dose: 20.0 mg/kg/injection, schedule: Q04DX003 (ip), vehicle: water). Moreover, the T/C reads like this: under setting [3], 119 % of control; (dose: 40.0 mg/kg/injection, schedule: Q04DX003 (ip), vehicle: other) 122 % of control; (dose: 40.0 mg/kg/injection, schedule: Q04DX003 (ip), vehicle: water) 109 % of control; (dose: 50.0 mg/kg/injection, schedule: Q01DX009 (ip), vehicle: Klucel (hydroxypropylcellulose) (HPC)) 104 % of control and 97 % of control; (dose: 80.0 mg/kg/injection, schedule: Q04DX003 (ip), vehicle: other) 116 % of control.

Consider `O=C(CS(=O)(=O)O)c1ccccc1`, for which the T/C by setting is: (dose: 25.0 mg/kg/injection, schedule: Q04DX002 (ip), vehicle: saline with Tween-80) 100 % of control; (dose: 50.0 mg/kg/injection, schedule: Q04DX002 (ip), vehicle: saline with Tween-80) 106 % of control; (dose: 100.0 mg/kg/injection, schedule: Q04DX002 (ip), vehicle: saline with Tween-80) 94 % of control and 97 % of control.

`COc1ccc(Cl)cc1Cn1ccnc1`: the T/C runs as follows: under setting [4], 97 % of control; under setting [5], 103 % of control.

As for `Nc1ncnc2c1ncn2C[c-]1[c-][c-][c-][c-]1.[Fe].[c-]1[c-][c-][cH-][c-]1`, the T/C by setting is: under setting [6], 94 % of control; under setting [7], 94 % of control; under setting [8], 100 % of control.

For the molecule `O=C1C=C(C2=CC(=O)c3cccc(O)c3C2=O)C(=O)c2c(O)cccc21`, the T/C is, setting by setting: under setting [1], 115 % of control; under setting [2], 115 % of control.

As to `CN1CCN(C#CC(=O)c2ccc(Cl)cc2)CC1`, the T/C reads like this: (dose: 7.5 mg/kg/injection, schedule: Q01DX005 (ip), vehicle: saline with Tween-80) 114 % of control; (dose: 15.0 mg/kg/injection, schedule: Q01DX005 (ip), vehicle: saline with Tween-80) 117 % of control.

For the molecule `O=S(=O)(NC(=S)S)c1ccccc1`, the T/C runs as follows: (dose: 12.5 mg/kg/injection, schedule: Q01DX009 (ip), vehicle: water) 102 % of control and 88 % of control and 94 % of control; (dose: 25.0 mg/kg/injection, schedule: Q01DX009 (ip), vehicle: water) 104 % of control and 107 % of control and 94 % of control; (dose: 50.0 mg/kg/injection, schedule: Q01DX009 (ip), vehicle: water) 102 % of control and 106 % of control and 116 % of control; (dose: 100.0 mg/kg/injection, schedule: Q01DX009 (ip), vehicle: water) 112 % of control (2×) and 123 % of control.

In the case of `COc1cc2c[n+]3ccccc3c(N)c2cc1OC`, the T/C is, setting by setting: (dose: 50.0 mg/kg/injection, schedule: Q04DX003 (ip), vehicle: distilled water + Tween-80) 110 % of control; (dose: 100.0 mg/kg/injection, schedule: Q04DX003 (ip), vehicle: distilled water + Tween-80) 106 % of control; (dose: 200.0 mg/kg/injection, schedule: Q04DX003 (ip), vehicle: distilled water + Tween-80) 97 % of control.

In the case of `Cn1c2c(c(=O)n(C)c1=O)N1c3c(n(C)c(=O)n(C)c3=O)NN1C(c1ccccc1)=N2`, the T/C under setting [9] is 95 % of control, the T/C under setting [10] is 88 % of control and the T/C under setting [11] was 89 % of control.

For the molecule `Cc1ccc(S(=O)(=O)NC(CSCc2ccccc2)C(=O)O)cc1` (configuration not stated), the T/C by setting is: (dose: 100.0 mg/kg/injection, schedule: Q04DX003 (ip), vehicle: saline with Tween-80) 100 % of control; (dose: 200.0 mg/kg/injection, schedule: Q04DX003 (ip), vehicle: saline with Tween-80) 100 % of control; (dose: 400.0 mg/kg/injection, schedule: Q04DX003 (ip), vehicle: saline with Tween-80) 100 % of control.

For `CC([OH2+])CNCCN.CC([OH2+])CNCCN.O=[N+]([O-])[O-].[Cu+2]` (configuration not stated), the T/C under setting [12] was 113 % of control.

`Cc1ccc2c(c1)NC(=O)CC(c1ccccc1)=N2`: the T/C by setting is: under setting [4], 97 % of control; under setting [5], 96 % of control; (dose: 240.0 mg/kg/injection, schedule: Q01DX005 (ip), vehicle: saline with Tween-80) 96 % of control.

With `COC(=O)CC1C=CCC2C(=O)C=C(OC)C(=O)C12C` (configuration not stated), the T/C by setting is: under setting [6], 103 % of control; under setting [7], 100 % of control; under setting [8], 100 % of control.

`CN1CCN(c2ccc([N+](=O)[O-])c3no[n+]([O-])c23)CC1`: the T/C is 116 % of control (dose: 2.5 mg/kg/injection, schedule: Q01DX009 (ip), vehicle: saline) and 152 % of control (dose: 20.0 mg/kg/injection, schedule: Q01DX009 (ip), vehicle: saline).

On to `Nc1ccc(S(=O)(=O)NC2C(O)OC(CO)C(O)C2O)cc1` (configuration not stated), for which the T/C reads like this: under setting [13], 98 % of control; under setting [14], 96 % of control; (dose: 200.0 mg/kg/injection, schedule: Q01DX005 (ip), vehicle: saline with Tween-80) 97 % of control.

For `O=c1c2nccnc2nc2n1CCS2`, the T/C is, setting by setting: (dose: 100.0 mg/kg/injection, schedule: Q04DX003 (ip), vehicle: Klucel (hydroxypropylcellulose) (HPC)) 100 % of control; (dose: 200.0 mg/kg/injection, schedule: Q04DX003 (ip), vehicle: Klucel (hydroxypropylcellulose) (HPC)) 101 % of control; (dose: 400.0 mg/kg/injection, schedule: Q04DX003 (ip), vehicle: Klucel (hydroxypropylcellulose) (HPC)) 107 % of control.

With `C[N+](C)(CC(=O)Nc1cccc(C(F)(F)F)c1)CC(=O)Nc1cccc(C(F)(F)F)c1`, the T/C runs as follows: (dose: 3.13 mg/kg/injection, schedule: Q01DX009 (ip), vehicle: saline sonified) 100 % of control; (dose: 6.25 mg/kg/injection, schedule: Q01DX009 (ip), vehicle: saline sonified) 104 % of control; (dose: 12.5 mg/kg/injection, schedule: Q01DX009 (ip), vehicle: saline sonified) 109 % of control.

For the molecule `O=c1[nH]cc(Br)c2sccc12`, the T/C (dose: 25.0 mg/kg/injection, schedule: Q01DX009 (ip), vehicle: saline with Tween-80) was 109 % of control; the T/C under setting [15] was 109 % of control; the T/C under setting [16] is 109 % of control.

On to `Cc1ccc2nc(N/N=C(\c3ccccc3)c3ccccn3)cc(C)c2c1`, for which the T/C is 100 % of control under setting [13] and 112 % of control under setting [14].

In the case of `CCN(CC)C(=O)C(C)C1=C(C)C(N(CC)CC)=NS(=O)(=O)c2ccccc21` (configuration not stated), the T/C is 102 % of control (dose: 100.0 mg/kg/injection, schedule: Q04DX002 (ip), vehicle: Klucel (hydroxypropylcellulose) (HPC)); 90 % of control (dose: 200.0 mg/kg/injection, schedule: Q04DX002 (ip), vehicle: Klucel (hydroxypropylcellulose) (HPC)); 109 % of control (dose: 400.0 mg/kg/injection, schedule: Q04DX002 (ip), vehicle: Klucel (hydroxypropylcellulose) (HPC)).

Consider `COc1cc2ccc3c(c2cc1OC)CNCC3`, for which the T/C was 100 % of control under setting [12] and 100 % of control under setting [17].

For the molecule `C=CCC(NC(=O)CCl)C(=O)O` (configuration not stated), the T/C is, setting by setting: under setting [12], 92 % of control; under setting [17], 90 % of control.

Regarding `Nc1ncnc2c1C=C(B(O)O)B(O)N2`, the T/C by setting is: under setting [1], 97 % of control; under setting [2], 99 % of control; under setting [3], 104 % of control.

As for `S=C(Nc1ccccn1)c1ccccn1`, the T/C is 95 % of control under setting [15]; 105 % of control under setting [12]; 88 % of control under setting [16]; 103 % of control under setting [17]; 103 % of control (dose: 200.0 mg/kg/injection, schedule: Q01DX009 (ip), vehicle: saline).

Take `CCCc1nnc2n1NC1(CS2)Nc2ccccc2N1`: the T/C is, setting by setting: under setting [9], 98 % of control; under setting [10], 97 % of control; under setting [11], 95 % of control.
